In patent US20230257396A1, “MACROCYCLES AND THEIR USE” (BLOSSOMHILL THERAPEUTICS, INC., priority 2020, published 2023):
Each block holds one molecule with its values, some of them ahead of it.

What was measured:
Test in all cases: KINOMEscan kinase binding assay (Eurofins/DiscoveRx), % Ctrl
[1] = target: T1, kinases (Homo sapiens, UniProt P00533, T790M)
T1 construct: purchased Eurofins/DiscoveRx; host or cells: E. coli BL21-derived host (T7 phage display) for most kinases; HEK-293 for the rest
Outline: (§1)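 Competition binding, 1 h RT: phage-tagged or HEK-293-expressed DNA-tagged kinase + immobilized ligand + compound. Eluate kinase by qPCR. % Ctrl = (test − positive ctrl)/(negative ctrl − positive ctrl) × 100; lower means stronger binding.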

[2] = target: T2, kinases (Homo sapiens, UniProt P42684)
T2 construct: purchased Eurofins/DiscoveRx; host or cells: E. coli BL21-derived host (T7 phage display) for most kinases; HEK-293 for the rest
T2 sequence (P42684 whole entry): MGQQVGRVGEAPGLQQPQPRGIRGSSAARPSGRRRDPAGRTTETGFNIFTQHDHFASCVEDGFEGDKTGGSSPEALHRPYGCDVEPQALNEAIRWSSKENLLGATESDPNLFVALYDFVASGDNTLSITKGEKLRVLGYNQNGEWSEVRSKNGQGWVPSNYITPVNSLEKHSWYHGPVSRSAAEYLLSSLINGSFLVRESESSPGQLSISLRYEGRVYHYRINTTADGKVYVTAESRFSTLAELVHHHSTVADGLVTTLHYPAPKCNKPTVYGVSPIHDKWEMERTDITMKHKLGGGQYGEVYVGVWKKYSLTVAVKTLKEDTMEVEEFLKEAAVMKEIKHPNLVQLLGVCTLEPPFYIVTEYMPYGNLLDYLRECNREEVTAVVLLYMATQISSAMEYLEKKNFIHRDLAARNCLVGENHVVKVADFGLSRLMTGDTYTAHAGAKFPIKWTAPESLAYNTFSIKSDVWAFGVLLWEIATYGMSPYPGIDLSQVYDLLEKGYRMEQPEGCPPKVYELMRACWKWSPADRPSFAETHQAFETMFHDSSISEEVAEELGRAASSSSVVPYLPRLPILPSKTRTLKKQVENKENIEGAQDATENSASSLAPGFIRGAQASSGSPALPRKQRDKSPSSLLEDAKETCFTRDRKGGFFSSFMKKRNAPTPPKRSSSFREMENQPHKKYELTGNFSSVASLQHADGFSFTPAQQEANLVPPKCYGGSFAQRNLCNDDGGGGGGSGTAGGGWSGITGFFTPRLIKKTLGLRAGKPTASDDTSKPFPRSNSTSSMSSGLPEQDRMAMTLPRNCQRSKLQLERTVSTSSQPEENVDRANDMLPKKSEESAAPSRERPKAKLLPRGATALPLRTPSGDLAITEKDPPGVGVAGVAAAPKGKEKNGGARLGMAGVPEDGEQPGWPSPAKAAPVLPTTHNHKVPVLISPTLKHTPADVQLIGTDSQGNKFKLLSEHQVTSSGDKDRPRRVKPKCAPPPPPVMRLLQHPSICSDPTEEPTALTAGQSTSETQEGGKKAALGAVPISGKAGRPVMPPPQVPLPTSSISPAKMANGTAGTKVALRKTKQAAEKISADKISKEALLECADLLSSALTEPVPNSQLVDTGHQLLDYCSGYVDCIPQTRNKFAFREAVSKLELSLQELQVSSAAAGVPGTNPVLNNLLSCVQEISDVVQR
Outline: as §1

[3] = target: T3, kinases (Homo sapiens, UniProt P00533, DEL752-759)
T3 construct: purchased Eurofins/DiscoveRx; host or cells: E. coli BL21-derived host (T7 phage display) for most kinases; HEK-293 for the rest
Outline: as §1

[4] = target: T4, kinases (Homo sapiens, UniProt P07949, V804L)
T4 construct: purchased Eurofins/DiscoveRx; host or cells: E. coli BL21-derived host (T7 phage display) for most kinases; HEK-293 for the rest
T4 sequence (P07949 29-1114 V804L): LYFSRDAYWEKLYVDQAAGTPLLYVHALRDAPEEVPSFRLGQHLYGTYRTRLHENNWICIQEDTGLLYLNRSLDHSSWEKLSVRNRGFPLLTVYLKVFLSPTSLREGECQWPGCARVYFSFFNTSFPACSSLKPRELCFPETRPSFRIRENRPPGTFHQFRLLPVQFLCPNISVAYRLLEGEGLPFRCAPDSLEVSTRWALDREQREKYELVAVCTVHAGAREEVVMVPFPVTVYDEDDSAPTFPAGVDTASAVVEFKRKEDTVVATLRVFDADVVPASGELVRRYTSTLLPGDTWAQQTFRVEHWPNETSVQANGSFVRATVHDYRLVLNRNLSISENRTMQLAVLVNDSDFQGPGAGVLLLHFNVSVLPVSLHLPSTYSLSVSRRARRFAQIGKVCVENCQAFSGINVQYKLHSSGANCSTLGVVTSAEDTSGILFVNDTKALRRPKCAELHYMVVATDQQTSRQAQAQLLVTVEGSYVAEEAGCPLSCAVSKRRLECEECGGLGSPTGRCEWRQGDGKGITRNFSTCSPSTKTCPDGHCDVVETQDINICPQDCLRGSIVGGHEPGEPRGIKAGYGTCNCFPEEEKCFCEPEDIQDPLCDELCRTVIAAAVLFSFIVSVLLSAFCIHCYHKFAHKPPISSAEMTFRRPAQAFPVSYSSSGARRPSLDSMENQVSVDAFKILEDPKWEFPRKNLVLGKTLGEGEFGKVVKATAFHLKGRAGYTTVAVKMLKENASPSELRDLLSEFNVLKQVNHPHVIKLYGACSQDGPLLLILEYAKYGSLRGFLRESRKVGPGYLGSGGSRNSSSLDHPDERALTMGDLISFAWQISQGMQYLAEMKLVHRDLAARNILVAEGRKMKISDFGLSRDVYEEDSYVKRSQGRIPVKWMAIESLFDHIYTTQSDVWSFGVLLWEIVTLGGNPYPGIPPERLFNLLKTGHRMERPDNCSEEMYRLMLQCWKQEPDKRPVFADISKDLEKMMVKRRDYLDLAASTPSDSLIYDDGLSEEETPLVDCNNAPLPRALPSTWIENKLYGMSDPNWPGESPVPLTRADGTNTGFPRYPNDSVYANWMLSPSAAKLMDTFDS
Outline: as §1

[5] = target: T5, kinases (Homo sapiens, UniProt P10721, V559D)
T5 construct: purchased Eurofins/DiscoveRx; host or cells: E. coli BL21-derived host (T7 phage display) for most kinases; HEK-293 for the rest
T5 sequence (P10721 26-976 V559D): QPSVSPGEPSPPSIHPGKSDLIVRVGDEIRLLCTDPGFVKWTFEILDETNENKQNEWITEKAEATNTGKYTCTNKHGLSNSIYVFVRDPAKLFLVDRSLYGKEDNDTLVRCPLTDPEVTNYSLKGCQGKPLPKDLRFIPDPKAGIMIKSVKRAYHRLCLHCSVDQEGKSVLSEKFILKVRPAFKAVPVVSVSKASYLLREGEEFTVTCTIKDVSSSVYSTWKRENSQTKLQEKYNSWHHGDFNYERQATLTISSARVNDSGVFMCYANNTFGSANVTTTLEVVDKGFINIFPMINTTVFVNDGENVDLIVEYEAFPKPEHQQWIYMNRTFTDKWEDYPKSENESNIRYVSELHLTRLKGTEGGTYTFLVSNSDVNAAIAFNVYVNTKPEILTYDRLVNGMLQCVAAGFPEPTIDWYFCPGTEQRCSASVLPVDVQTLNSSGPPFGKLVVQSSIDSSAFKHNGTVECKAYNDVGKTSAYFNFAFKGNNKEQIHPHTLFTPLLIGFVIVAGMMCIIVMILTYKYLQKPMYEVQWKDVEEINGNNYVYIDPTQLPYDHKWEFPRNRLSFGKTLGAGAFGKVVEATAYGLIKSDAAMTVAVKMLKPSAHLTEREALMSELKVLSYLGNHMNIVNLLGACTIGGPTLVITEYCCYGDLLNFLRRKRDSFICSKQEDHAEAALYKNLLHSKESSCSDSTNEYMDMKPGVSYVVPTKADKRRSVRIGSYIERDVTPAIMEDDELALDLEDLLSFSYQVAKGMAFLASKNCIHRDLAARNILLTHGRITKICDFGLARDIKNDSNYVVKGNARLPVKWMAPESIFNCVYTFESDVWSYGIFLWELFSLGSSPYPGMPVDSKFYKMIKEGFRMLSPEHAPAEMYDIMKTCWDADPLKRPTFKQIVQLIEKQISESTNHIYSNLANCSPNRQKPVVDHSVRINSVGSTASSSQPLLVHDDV
Outline: as §1

[6] = target: T6, kinases (Homo sapiens, UniProt P00533, L861Q)
T6 construct: purchased Eurofins/DiscoveRx; host or cells: E. coli BL21-derived host (T7 phage display) for most kinases; HEK-293 for the rest
Outline: as §1

[7] = target: T7, kinases (Homo sapiens, UniProt P35916)
T7 construct: purchased Eurofins/DiscoveRx; host or cells: E. coli BL21-derived host (T7 phage display) for most kinases; HEK-293 for the rest
Outline: as §1

[8] = target: T8, kinases (Homo sapiens, UniProt P10721)
T8 construct: purchased Eurofins/DiscoveRx; host or cells: E. coli BL21-derived host (T7 phage display) for most kinases; HEK-293 for the rest
T8 sequence (P10721 26-976): as the sequence (P10721 26-976 V559D) above, with D534V counted along it
Outline: as §1

[9] = target: T9, kinases (Homo sapiens, UniProt P00519, M351T)
T9 construct: purchased Eurofins/DiscoveRx; host or cells: E. coli BL21-derived host (T7 phage display) for most kinases; HEK-293 for the rest
Outline: as §1

[10] = target: T10, kinases (Homo sapiens, UniProt P36888)
T10 construct: purchased Eurofins/DiscoveRx; host or cells: E. coli BL21-derived host (T7 phage display) for most kinases; HEK-293 for the rest
T10 sequence (P36888 27-993): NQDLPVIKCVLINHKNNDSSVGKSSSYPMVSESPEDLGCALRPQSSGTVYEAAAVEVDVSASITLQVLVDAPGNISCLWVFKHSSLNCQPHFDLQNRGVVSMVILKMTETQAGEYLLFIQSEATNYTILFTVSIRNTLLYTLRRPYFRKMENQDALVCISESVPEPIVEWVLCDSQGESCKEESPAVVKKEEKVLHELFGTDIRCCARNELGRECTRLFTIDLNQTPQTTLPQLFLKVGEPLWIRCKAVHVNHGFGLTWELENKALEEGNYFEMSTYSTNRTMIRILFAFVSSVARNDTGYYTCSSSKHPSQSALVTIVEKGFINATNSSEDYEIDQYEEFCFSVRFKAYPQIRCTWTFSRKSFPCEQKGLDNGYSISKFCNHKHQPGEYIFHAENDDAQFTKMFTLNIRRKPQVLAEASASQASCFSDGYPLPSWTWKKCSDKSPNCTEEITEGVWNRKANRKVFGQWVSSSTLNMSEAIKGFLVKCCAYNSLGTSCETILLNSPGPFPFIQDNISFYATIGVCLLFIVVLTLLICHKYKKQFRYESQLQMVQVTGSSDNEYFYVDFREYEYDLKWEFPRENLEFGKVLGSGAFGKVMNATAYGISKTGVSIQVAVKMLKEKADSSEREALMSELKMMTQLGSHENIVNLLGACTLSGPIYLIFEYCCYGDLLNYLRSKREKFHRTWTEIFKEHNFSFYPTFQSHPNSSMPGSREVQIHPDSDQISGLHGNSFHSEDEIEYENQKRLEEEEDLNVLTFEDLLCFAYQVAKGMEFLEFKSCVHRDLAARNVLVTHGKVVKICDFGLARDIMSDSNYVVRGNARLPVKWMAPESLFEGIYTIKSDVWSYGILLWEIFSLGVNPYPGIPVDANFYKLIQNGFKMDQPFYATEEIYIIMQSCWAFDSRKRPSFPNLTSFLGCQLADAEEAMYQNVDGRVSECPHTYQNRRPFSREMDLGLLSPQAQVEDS
Outline: as §1

[11] = target: T11, kinases (Homo sapiens, UniProt P10721, D816H)
T11 construct: purchased Eurofins/DiscoveRx; host or cells: E. coli BL21-derived host (T7 phage display) for most kinases; HEK-293 for the rest
T11 sequence (P10721 26-976 D816H): as the sequence (P10721 26-976 V559D) above, with D534V, D791H counted along it
Outline: as §1

[12] = target: T12, kinases (Homo sapiens, UniProt P09619)
T12 construct: purchased Eurofins/DiscoveRx; host or cells: E. coli BL21-derived host (T7 phage display) for most kinases; HEK-293 for the rest
T12 sequence (P09619 33-1106): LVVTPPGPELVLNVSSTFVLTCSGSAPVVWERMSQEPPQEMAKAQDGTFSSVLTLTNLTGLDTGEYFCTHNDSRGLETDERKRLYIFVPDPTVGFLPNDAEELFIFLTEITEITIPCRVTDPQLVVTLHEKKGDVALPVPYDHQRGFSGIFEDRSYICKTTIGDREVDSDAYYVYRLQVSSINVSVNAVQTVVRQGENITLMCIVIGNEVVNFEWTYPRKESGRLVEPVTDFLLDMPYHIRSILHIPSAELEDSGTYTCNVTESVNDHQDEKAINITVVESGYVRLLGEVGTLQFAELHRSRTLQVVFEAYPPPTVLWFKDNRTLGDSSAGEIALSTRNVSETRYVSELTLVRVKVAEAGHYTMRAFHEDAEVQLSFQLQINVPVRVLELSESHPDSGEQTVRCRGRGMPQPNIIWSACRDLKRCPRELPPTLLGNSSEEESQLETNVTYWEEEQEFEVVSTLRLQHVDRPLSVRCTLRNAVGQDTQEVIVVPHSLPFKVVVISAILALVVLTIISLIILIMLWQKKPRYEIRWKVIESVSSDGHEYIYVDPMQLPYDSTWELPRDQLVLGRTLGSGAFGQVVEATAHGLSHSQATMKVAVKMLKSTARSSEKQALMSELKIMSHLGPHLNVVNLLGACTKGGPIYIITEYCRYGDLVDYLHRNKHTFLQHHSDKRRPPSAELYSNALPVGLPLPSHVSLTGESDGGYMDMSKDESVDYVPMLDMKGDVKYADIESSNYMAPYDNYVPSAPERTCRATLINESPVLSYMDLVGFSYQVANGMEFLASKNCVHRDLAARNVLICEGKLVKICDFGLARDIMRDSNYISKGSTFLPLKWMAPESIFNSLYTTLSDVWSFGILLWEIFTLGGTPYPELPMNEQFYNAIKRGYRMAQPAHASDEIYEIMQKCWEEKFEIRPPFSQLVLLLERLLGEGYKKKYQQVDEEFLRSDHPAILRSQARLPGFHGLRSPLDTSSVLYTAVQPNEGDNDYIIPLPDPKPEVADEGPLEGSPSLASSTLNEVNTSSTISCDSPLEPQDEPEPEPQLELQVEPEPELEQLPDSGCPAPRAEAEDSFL
Outline: as §1

[13] = target: T13, kinases (Homo sapiens, UniProt P07949, M918T)
T13 construct: purchased Eurofins/DiscoveRx; host or cells: E. coli BL21-derived host (T7 phage display) for most kinases; HEK-293 for the rest
T13 sequence (P07949 29-1114 M918T): as the sequence (P07949 29-1114 V804L) above, with L776V, M890T counted along it
Outline: as §1

[14] = target: T14, kinases (Homo sapiens, UniProt P00519, H396P)
T14 construct: purchased Eurofins/DiscoveRx; host or cells: E. coli BL21-derived host (T7 phage display) for most kinases; HEK-293 for the rest
Outline: as §1

[15] = target: T15, kinases (Homo sapiens, UniProt P07949, V804M)
T15 construct: purchased Eurofins/DiscoveRx; host or cells: E. coli BL21-derived host (T7 phage display) for most kinases; HEK-293 for the rest
T15 sequence (P07949 29-1114 V804M): as the sequence (P07949 29-1114 V804L) above, with L776M counted along it
Outline: as §1

% Ctrl, EGFR(T790M) ([1]; target EGFR(T790M); 1 μM): 70 % Ctrl
% Ctrl, ABL2 ([2]; target ABL2; 1 μM): 58 % Ctrl
% Ctrl, EGFR(S752-I759del) ([3]; target EGFR(S752-I759del); 1 μM): 84 % Ctrl
% Ctrl, RET(V804L) ([4]; target RET(V804L); 1 μM): 0.3 % Ctrl
% Ctrl, KIT(V559D) ([5]; target KIT(V559D); 1 μM): 55 % Ctrl
% Ctrl, EGFR(L861Q) ([6]; target EGFR(L861Q); 1 μM): 58 % Ctrl
% Ctrl, FLT4 ([7]; target FLT4; 1 μM): 31 % Ctrl
% Ctrl, KIT-autoinhibited ([8]; target KIT-autoinhibited; 1 μM): 39 % Ctrl
% Ctrl, KIT ([8]; target KIT; 1 μM): 74 % Ctrl
% Ctrl, ABL1(M351T)-phosphorylated ([9]; target ABL1(M351T)-phosphorylated; 1 μM): 3.7 % Ctrl
% Ctrl, FLT3-autoinhibited ([10]; target FLT3-autoinhibited; 1 μM): 10 % Ctrl
% Ctrl, FLT3 ([10]; target FLT3; 1 μM): 11 % Ctrl
% Ctrl, KIT(D816H) ([11]; target KIT(D816H); 1 μM): 18 % Ctrl
% Ctrl, PDGFRB ([12]; target PDGFRB; 1 μM): 10 % Ctrl
% Ctrl, RET(M918T) ([13]; target RET(M918T); 1 μM): 0.6 % Ctrl
% Ctrl, ABL1(H396P)-nonphosphorylated ([14]; target ABL1(H396P)-nonphosphorylated; 1 μM): 0.8 % Ctrl
% Ctrl, ABL1(H396P)-phosphorylated ([14]; target ABL1(H396P)-phosphorylated; 1 μM): 3.6 % Ctrl
% Ctrl, RET(V804M) ([15]; target RET(V804M); 1 μM): 0.3 % Ctrl
SMILES: Cc1cc2c([nH]1)/C=C1\C(=O)Nc3cnc(cc31)-c1cn[nH]c1CNCCN(C)C2=O [Ex. 55, [3a(4)Z]-6,9-dimethyl-9,10,11,12,13,14-hexahydro-17,1-(azenometheno)pyrazolo[4,3-m]dipyrrolo[3,2-f:3′,4′-i][1,4]diazacyclopentadecine-3,8(2,5H)-dione]

% Ctrl, EGFR(T790M) ([1]; 1 μM; target EGFR(T790M)): 69 % Ctrl
% Ctrl, ABL2 ([2]; 1 μM; target ABL2): 0.3 % Ctrl
% Ctrl, EGFR(S752-I759del) ([3]; 1 μM; target EGFR(S752-I759del)): 61 % Ctrl
% Ctrl, RET(V804L) ([4]; 1 μM; target RET(V804L)): 0.2 % Ctrl
% Ctrl, KIT(V559D) ([5]; 1 μM; target KIT(V559D)): 1.2 % Ctrl
% Ctrl, EGFR(L861Q) ([6]; 1 μM; target EGFR(L861Q)): 77 % Ctrl
% Ctrl, FLT4 ([7]; 1 μM; target FLT4): 0.1 % Ctrl
% Ctrl, KIT ([8]; 1 μM; target KIT): 7.5 % Ctrl
% Ctrl, KIT-autoinhibited ([8]; 1 μM; target KIT-autoinhibited): 25 % Ctrl
% Ctrl, ABL1(M351T)-phosphorylated ([9]; 1 μM; target ABL1(M351T)-phosphorylated): 0.1 % Ctrl
% Ctrl, FLT3 ([10]; 1 μM; target FLT3): 1.8 % Ctrl
% Ctrl, FLT3-autoinhibited ([10]; 1 μM; target FLT3-autoinhibited): 12 % Ctrl
% Ctrl, KIT(D816H) ([11]; 1 μM; target KIT(D816H)): 8.3 % Ctrl
% Ctrl, PDGFRB ([12]; 1 μM; target PDGFRB): 0.9 % Ctrl
% Ctrl, RET(M918T) ([13]; 1 μM; target RET(M918T)): 0 % Ctrl
% Ctrl, ABL1(H396P)-nonphosphorylated ([14]; 1 μM; target ABL1(H396P)-nonphosphorylated): 0 % Ctrl
% Ctrl, ABL1(H396P)-phosphorylated ([14]; 1 μM; target ABL1(H396P)-phosphorylated): 0 % Ctrl
% Ctrl, RET(V804M) ([15]; 1 μM; target RET(V804M)): 0.9 % Ctrl
SMILES: Cc1cc2c([nH]1)/C=C1\C(=O)Nc3cc(Cl)c(cc31)SCCOCCN(C)C2=O [Ex. 169, [16a(17)Z]-19-chloro-5-methyl-6,7,9,10-tetrahydro-1H-12,14-(ethanediylidene)dipyrrolo[3,4-g:2′,3′-j][1,4,13]oxathiazacyclopentadecine-4,16(5H,15H)-dione]

% Ctrl, EGFR(T790M) ([1]; 1 μM; EGFR(T790M)): 100 % Ctrl
% Ctrl, ABL2 ([2]; 1 μM; ABL2): 96 % Ctrl
% Ctrl, EGFR(S752-I759del) ([3]; 1 μM; EGFR(S752-I759del)): 78 % Ctrl
% Ctrl, RET(V804L) ([4]; 1 μM; RET(V804L)): 96 % Ctrl
% Ctrl, KIT(V559D) ([5]; 1 μM; KIT(V559D)): 98 % Ctrl
% Ctrl, EGFR(L861Q) ([6]; 1 μM; EGFR(L861Q)): 81 % Ctrl
% Ctrl, FLT4 ([7]; 1 μM; FLT4): 83 % Ctrl
% Ctrl, KIT ([8]; 1 μM; KIT): 100 % Ctrl
% Ctrl, KIT-autoinhibited ([8]; 1 μM; KIT-autoinhibited): 78 % Ctrl
% Ctrl, ABL1(M351T)-phosphorylated ([9]; 1 μM; ABL1(M351T)-phosphorylated): 83 % Ctrl
% Ctrl, FLT3 ([10]; 1 μM; FLT3): 100 % Ctrl
% Ctrl, FLT3-autoinhibited ([10]; 1 μM; FLT3-autoinhibited): 98 % Ctrl
% Ctrl, KIT(D816H) ([11]; 1 μM; KIT(D816H)): 96 % Ctrl
% Ctrl, PDGFRB ([12]; 1 μM; PDGFRB): 100 % Ctrl
% Ctrl, RET(M918T) ([13]; 1 μM; RET(M918T)): 100 % Ctrl
% Ctrl, ABL1(H396P)-nonphosphorylated ([14]; 1 μM; ABL1(H396P)-nonphosphorylated): 87 % Ctrl
% Ctrl, ABL1(H396P)-phosphorylated ([14]; 1 μM; ABL1(H396P)-phosphorylated): 93 % Ctrl
% Ctrl, RET(V804M) ([15]; 1 μM; RET(V804M)): 94 % Ctrl
SMILES: Cc1cc2c([nH]1)/C=C1\C(=O)Nc3ccc(cc31)OCCOCCNC2=O [Ex. 129, [16a(17)Z]-2-methyl-6,7,9,10-tetrahydro-1H-12,14-(ethanediylidene)dipyrrolo[3,2-i:3′,4′-l][1,4,7]dioxazacyclopentadecine-4,16(5H,15H)-dione]
